Test [1] addresses T1, MtbNei2 (Rv3297) (Mycobacterium tuberculosis, UniProt P9WNC1).
T1 sequence (P9WNC1 1-255): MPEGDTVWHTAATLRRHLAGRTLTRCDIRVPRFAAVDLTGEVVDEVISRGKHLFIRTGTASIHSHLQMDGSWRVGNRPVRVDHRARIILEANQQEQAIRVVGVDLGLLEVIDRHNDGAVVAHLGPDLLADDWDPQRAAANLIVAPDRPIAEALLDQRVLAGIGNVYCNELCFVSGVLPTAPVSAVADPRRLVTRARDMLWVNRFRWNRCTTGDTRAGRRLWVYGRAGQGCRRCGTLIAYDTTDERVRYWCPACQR
Briefly: In vitro inhibition of AP site cleavage. Particulars: for Inhibition of AP site cleavage activity (in words): 50-800 µM inhibitor, 80 nM MtbNei2. Format: biochemical.

The target in test [2] is T1, MtbNei2 (Rv3297). Briefly: In vitro inhibition of Uracil DNA glycosylase activity of MtbNei2. Format: biochemical. Particulars: for Inhibition of Uracil DNA glycosylase activity (in words): 50-800 µM inhibitor, 80 nM MtbNei2.

A word on the IC50: it is the concentration that inhibits the measured activity by half. The low end stands for inhibition by little substance, the high end for a need for much substance. For `COc1c2c(cc3c1[C@@H]1Oc4c(ccc(O)c4CC=C(C)C)[C@@H]1CO3)OC(C)(C)C=C2` [NSC250430, Gangetin], on MtbNei2 (Rv3297) [1], the concentration for half-maximal inhibition (IC50) was found to be 43.6 µM and the “Inhibition of AP site cleavage activity (in words)” value is listed as “good inhibition”. Moreover, on MtbNei2 (Rv3297) [2], 76.2 µM corresponded to half-maximal inhibition (IC50) and the “Inhibition of Uracil DNA glycosylase activity (in words)” value is “good inhibition”.
Turning to `C[C@H]1Oc2cc3c(-c4c(O)cc(O)c5c(O)c6c(cc45)O[C@H](C)[C@@H](C)C6=O)c(O)cc(O)c3c(O)c2C(=O)[C@@H]1C` [NSC345647, Chaetochromin], at MtbNei2 (Rv3297) [1], inhibition was half-maximal at 84.7 µM (IC50) and the “Inhibition of AP site cleavage activity (in words)” value was “good inhibition”. Besides, at MtbNei2 (Rv3297) [2], half-maximal inhibition (IC50) required 92.7 µM and the “Inhibition of Uracil DNA glycosylase activity (in words)” value was “good inhibition”.

These data come from paper PMC5613217 (Biochemistry and Biophysics Reports, 2017).
